Like-named read-outs stand apart in the source and are kept apart here. *1 amine or outer side, *2 acyl side, *3 side chain or, on linkers, in order; H or OH if unused. Where a SMILES comes first, the peptide text is derived from it. Bridges are numbered along the chain shown (N, C = ends). [ ]: non-standard residue; d: D form. The star is where a group is joined. hTyr(3S-OH,4S-OH,3'-OSO3H) = N[C@H](C(=O)O)[C@H](O)[C@@H](O)c1ccc(O)c(OS(=O)(=O)O)c1; Orn(4R-OH,5R-OH) = O=C([C@H](C[C@@H](O)[C@@H](O)N[*:3])N[*:1])[*:2]; Pro(3S-OH,4S-Me) = C[C@H]1CN[C@H](C(=O)O)[C@H]1O; X1 = CCCCCOc1ccc(-c2cc(-c3ccc(C(=O)*)cc3)no2)cc1; Gln(3R-OH) = NC(=O)C[C@@H](O)[C@H](N)C(=O)O; Hyp = O=C(O)[C@@H]1C[C@@H](O)CN1
Tests used:
cytochrome P450 [1] = test: Metabolism of luciferin derivatives in cultured silkworm midgut (P450-Glo, luminometer); assay type: in vitro ADME, Bombyx mori (silkworm); conditions: silkworm midgut incubated with luciferin substrate at 30 °C
[2] = Pharmacokinetics of antibiotics in silkworm hemolymph after injection (HPLC); conditions: for HPLC peak area in hemolymph: raw data of Fig. 1; for Time-course of the decrease in concentration in hemolymph (in words): after administration into hemolymph, alpha and beta phase; for Time-course of the decrease in concentration in hemolymph (in words) / Cltot (total body clearance): two-compartment model; for half-life: in vivo; for Cltot (total body clearance): silkworm, injection into hemolymph, dose per compound 10-50 mg/kg
Experimental: Antibiotics were injected into silkworm hemolymph and hemolymph was collected by cutting the legs at the indicated time.
Antibiotics dissolved in saline were injected into the hemolymph of 5th instar silkworms using a 1-mL syringe attached to a 27 G needle. Hemolymph was harvested from abdominal appendages by cutting them with scissors at the indicated time-points after administration, and mixed with an equal volume of acetone. Samples were centrifuged at 15,000 rpm for 5 min at 4 °C, and the supernatants were evaporated with a centrifuge evaporator[18]. The dried materials were dissolved in 50% methanol and filtrated through a 0.45-µm filter. […] The amount of antibiotics in the sample was quantified from the peak area of the chromatogram.

[3] = set-up: method as in PMID 15256761; conditions: rat, dose 1 mg/kg; cited from earlier work
cytochrome P450 [4] = test: Decay of cytochrome P450 substrates in in vitro culture of the silkworm midgut (HPLC); conditions: for HPLC peak area of substrate, Sample 1 / HPLC peak area of substrate, Sample 2: silkworm (Bombyx mori); for HPLC peak area of substrate: midgut culture, raw data of Fig. 3
Experimental: Silkworm midgut was incubated in medium with cytochrome P450 substrates at 30 °C. The samples were collected, extracted by acetone, and evaporated. The amounts of substrates were determined by HPLC analysis.
Silkworms (5th instar, 5 days) were dissected in a buffer (10 mM HEPES/NaOH, 0.9% NaCl, pH 7.9), and isolated organs were incubated with 3 mL TC-100 medium containing 10% fetal bovine serum, 50 µg/ml gentamicin, and substrates for the metabolic reaction. Whole samples (medium and organ) were homogenized and extracted by equal volumes of acetone followed by evaporation. Extracted samples were dissolved in 50 mM NaOAc buffer and treated with beta-glucosidase to measure the fluorescence of metabolized 7-ethoxycoumarin[6]. […] Samples for HPLC were dissolved in 50% methanol. HPLC analysis was performed using a PEGASIL ODS SP column (φ4.5 mm × 250 mm) with isocratic elution at a flow rate of 1 ml/min.

[5] = mammal, dose 8 mg/kg; cited from earlier work
cytochrome P450 [6] = test: 7-ethoxycoumarin deethylation activity in silkworm tissue culture (fluorometry); assay type: in vitro ADME, Bombyx mori (silkworm); conditions: midgut incubated with 7-ethoxycoumarin and cimetidine at 30 °C
Experimental: Figure 2 Tissue specificity of 7-ethoxycoumarin deethylation activity in silkworm. (A) The midgut, fat body, silk gland, and Malpighian tubule were extirpated from silkworms and incubated in medium containing 7-ethoxycoumarin at 30 °C. Medium was collected, extracted by acetone, and evaporated. Samples […] in 50 mM NaOAc buffer (pH 6.0) were treated with beta-glucosidase. The amount of 7-hydroxycomarin, a metabolite, was determined by fluorometry. (B) Inhibition of 7-ethoxycoumarin deethylation by cimetidine in the silkworm midgut. Silkworm midgut was incubated in medium containing 7-ethoxycoumarin and cimetidine at 30 °C. Samples were collected, extracted by acetone, and treated with beta-glucosidase. The amount of 7-hydroxycomarin was determined by fluorometry.
Samples for HPLC were dissolved in 50% methanol.

## O=C(O)C1CSC(c2nc3ccc(OCc4c(F)c(F)c(F)c(F)c4F)cc3s2)=N1 (stereo not shown) [Luciferin-PFBE]
Cytochrome P450 [1]
  Production of luciferin (RFU/organ): 229,000 RFU/organ

## CCCCCOc1ccc(-c2cc(-c3ccc(C(=O)N[C@H]4C[C@@H](O)[C@@H](O)NC(=O)[C@@H]5[C@@H](O)[C@@H](C)CN5C(=O)[C@H]([C@H](O)CC(N)=O)NC(=O)[C@H]([C@H](O)[C@@H](O)c5ccc(O)c(OS(=O)(=O)O)c5)NC(=O)[C@@H]5C[C@@H](O)CN5C(=O)[C@H]([C@@H](C)O)NC4=O)cc3)no2)cc1 [Micafungin] (X1-[Orn(4R-OH,5R-OH)]T[Hyp][hTyr(3S-OH,4S-OH,3'-OSO3H)][Gln(3R-OH)][Pro(3S-OH,4S-Me)]; lactam 1-C)
[2]; 1 min after injection
  HPLC peak area in hemolymph: 2078182
[2]; 5 min after injection
  HPLC peak area in hemolymph: 1273864
[2]; 20 min after injection
  HPLC peak area in hemolymph: 874882
[2]; 45 min after injection
  HPLC peak area in hemolymph: 1057083
[2]; 60 min after injection
  HPLC peak area in hemolymph: 1430059
[2]; 75 min after injection
  HPLC peak area in hemolymph: 1093500
[2]; 90 min after injection
  HPLC peak area in hemolymph: 1117482
[2]; 120 min after injection
  HPLC peak area in hemolymph: 1017294
[2]; 150 min after injection
  HPLC peak area in hemolymph: 1043908
[2]; 180 min after injection
  HPLC peak area in hemolymph: 936752
[2]; 240 min after injection
  HPLC peak area in hemolymph: 1002362
[2]; 360 min after injection
  HPLC peak area in hemolymph: 970304
[2]
  Time-course of the decrease in concentration in hemolymph (in words): biphasic
  half-life: 12 h
  Cltot (total body clearance): 0.03 mL/g/h
[3]
  Cltot: 0.07 mL/g/h
  Vdss: 0.4 mL/g
  t1/2: 5.0 h

## COc1ccc2[nH]c([S+]([O-])Cc3ncc(C)c(OC)c3C)nc2c1 (stereo not shown) [Omeprazole]
Cytochrome P450 [4]
  Metabolism in the silkworm midgut (in words): metabolized in the silkworm midgut
Cytochrome P450 [4]; 0 h
  HPLC peak area of substrate, Sample 1: 141638
  HPLC peak area of substrate, Sample 2: 142171
Cytochrome P450 [4]; 1 h
  HPLC peak area of substrate, Sample 1: 117549
  HPLC peak area of substrate, Sample 2: 116381
Cytochrome P450 [4]; 4 h
  HPLC peak area of substrate, Sample 1: 57706
  HPLC peak area of substrate, Sample 2: 60668
Cytochrome P450 [4]; 20 h
  HPLC peak area of substrate, Sample 1: 8164
  HPLC peak area of substrate, Sample 2: 1815

## C[C@]12CC[C@H]3[C@@H](CCC4=CC(=O)CC[C@@]43C)[C@@H]1CC[C@@H]2O [Testosterone]
Cytochrome P450 [4]; in vitro organ culture, up to 20 h incubation
  Metabolism in the silkworm midgut (in words): metabolized in the silkworm midgut
Cytochrome P450 [4]; 0 h
  HPLC peak area of substrate: 3160000
Cytochrome P450 [4]; 1 h
  HPLC peak area of substrate: 1620000
Cytochrome P450 [4]; 4 h
  HPLC peak area of substrate: 1110000
Cytochrome P450 [4]; 20 h
  HPLC peak area of substrate: 1210000

## CN[C@H](CC(C)C)C(=O)N[C@H]1C(=O)N[C@@H](CC(N)=O)C(=O)N[C@H]2C(=O)N[C@H]3C(=O)N[C@H](C(=O)N[C@H](C(=O)O)c4cc(O)cc(O)c4-c4cc3ccc4O)[C@H](O)c3ccc(c(Cl)c3)Oc3cc2cc(c3O[C@@H]2O[C@H](CO)[C@@H](O)[C@H](O)[C@H]2O[C@H]2C[C@](C)(N)[C@H](O)[C@H](C)O2)Oc2ccc(cc2Cl)[C@H]1O [Vancomycin]
[2]; 0 min after injection
  HPLC peak area in hemolymph: 6413329
[2]; 1 min after injection
  HPLC peak area in hemolymph: 7258474
[2]; 5 min after injection
  HPLC peak area in hemolymph: 5965159
[2]; 10 min after injection
  HPLC peak area in hemolymph: 4477743
[2]; 15 min after injection
  HPLC peak area in hemolymph: 4233708
[2]; 30 min after injection
  HPLC peak area in hemolymph: 5070602
[2]; 45 min after injection
  HPLC peak area in hemolymph: 4520231
[2]; 60 min after injection
  HPLC peak area in hemolymph: 4399183
[2]; 90 min after injection
  HPLC peak area in hemolymph: 3764336
[2]; 120 min after injection
  HPLC peak area in hemolymph: 4979100
[2]; 180 min after injection
  HPLC peak area in hemolymph: 4348972
[2]; 240 min after injection
  HPLC peak area in hemolymph: 4148058
[2]
  Time-course of the decrease in concentration in hemolymph (in words): biphasic
  half-life: 13 h
  Cltot (total body clearance): 0.03 mL/g/h
[5]
  Cltot: 0.08 mL/g/h
  Vdss: 0.6 mL/g
  t1/2: 2.6 h

## CN/C(=N/CCSCc1nc[nH]c1C)NC#N [cimetidine]
Cytochrome P450 [6]
  Inhibition of 7-ethoxycoumarin deethylation in the silkworm midgut (in words): inhibited this reaction in the midgut

— paper PMC6602958, “Pharmacokinetics of anti-infectious reagents in silkworms” (Scientific Reports, 2019)
